The nature of test [1]: (§1) Inhibitory activity was determined. The following applies: read-out: I50.
Test [2] is described as follows: as §1.

Regarding `C(=C\c1cccc2ccccc12)/c1ccncc1`, the IC50 in test [1] was 25 µM. `C(=C\c1cccc2ccccc12)/c1ccncc1` (stereo in doubt; cis) [listing 1 of 2 here]: the IC50 in test [1] stood at 50 µM. `C(=C\c1cccc2ccccc12)/c1ccncc1` (stereo in doubt; cis) [listing 2 of 2 here] had an I23 in test [2] of 400 µM. Consider `C(=C\c1cccc2ccccc12)/c1ccncc1` (stereo in doubt; trans), for which the IC50 in test [1] amounted to 5 µM.

These data come from ChEMBL document CHEMBL1122678, “Structural correlations of choline acetyltransferase inhibitors: trans-N-(carboxymethyl)-4-(beta-1-naphthylvinyl)pyridinium bromide and cis-N-(2-aminoethyl)-4-(beta-1-naphthylvinyl)-3-methylpyridinium bromide hydrobromide” (J Med Chem, 1984).
